Results: patent US9624182B2, “Compounds as lysophosphatidic acid receptor antagonists” (Amira Pharmaceuticals, Inc., priority 2009, dated 2017)

Target: T1, human LPA1 (Homo sapiens, UniProt Q92633)
T1 construct: the full-length cDNA for human LPA1 was obtained by PCR of the reverse transcription reaction; expressed in transfected cells
Assay: LPA1 calcium flux assay
Type: cell-based
Details: CHO cells expressing human LPA1, stimulated with 10 nM LPA; read-out: HLPA1 Ca Flux IC50
Procedure: A 1.1 kb cDNA encoding the human LPA1 receptor was cloned from human lung. Human lung RNA (Clontech Laboratories, Inc. USA) was reverse transcribed using the RETROscript kit (Ambion, Inc.) and the full-length cDNA for human LPA1 was obtained by PCR of the reverse transcription reaction. The nucleotide sequence of the cloned human LPA1 was determined by sequencing and confirmed to be identical to the published human LPA1 sequence (An et al. Biochenm. Biophys. Res. Commun. 231:619 (1997). The cDNA was cloned into the pCDNA5/FRT expression plasmid and transfected in CHO cells using lipofectamine 2000 (Invitrogen Corp., USA). Clones stably expressing human LPA1 were selected using hygromycin and identified as cells that show Ca-influx in response to LPA.
Human LPA1 or LPA3 expressing CHO cells are seeded at 20,000-45,000 cells per well in a 96-well poly-D-lysine coated plate one or two days before the assay. Prior to the assay, the cells are washed once with PBS and then cultured in serum-free media overnight. On the day of the assay, a calcium indicator dye (Calcium 4, Molecular Devices) in assay buffer (HBSS with Ca^2+ and Mg^2+ and containing 20 mM Hepes and 0.3% fatty-acid free human serum albumin) is added to each well and incubation continued for 1 hour at 37° C. 10 μl of test compounds in 2.5% DMSO are added to the cells and incubation continued at room temperature for 30 minutes. Cells are the stimulated by the addition of 10 nM LPA and intracellular Ca^2+ measured using the Flexstation 3 (Molecular Devices). IC50s are determined using Graphpad prism analysis of drug titration curves.

T1 sequence (Q92633 whole entry): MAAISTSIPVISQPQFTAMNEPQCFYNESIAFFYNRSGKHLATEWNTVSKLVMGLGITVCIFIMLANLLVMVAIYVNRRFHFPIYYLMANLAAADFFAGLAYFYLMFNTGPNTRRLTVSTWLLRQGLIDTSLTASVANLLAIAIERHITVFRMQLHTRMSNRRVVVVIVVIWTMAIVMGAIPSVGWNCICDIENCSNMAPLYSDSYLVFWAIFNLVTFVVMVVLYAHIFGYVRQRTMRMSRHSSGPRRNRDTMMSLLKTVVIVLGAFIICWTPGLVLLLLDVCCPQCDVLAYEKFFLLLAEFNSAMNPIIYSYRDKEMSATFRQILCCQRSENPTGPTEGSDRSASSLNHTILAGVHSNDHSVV

IC50 [µM] | Structure (SMILES)
< 0.3 | Cc1noc(-c2ccc(-c3ccc(C4(C(=O)O)CC4)cc3)cc2)c1CCOCC1CC1 [Compound 1-35, 1-{4′-[4-(2-Cyclopropylmethoxy-ethyl)-3-methyl-isoxazol-5-yl]-biphenyl-4-yl}-cyclopropanecarboxylic acid]
1 to 50 | Cc1noc(-c2ccc(-c3ccc(C4(C(=O)O)CC4)cc3)cc2)c1CCNC(=O)c1ccccc1 [Compound 1-36, 1-{4′-[4-(2-Benzoylamino-ethyl)-3-methyl-isoxazol-5-yl]-biphenyl-4-yl}-cyclopropanecarboxylic acid]
1 to 50 | Cc1noc(-c2ccc(-c3ccc(C4(C(=O)O)CC4)cc3)cc2)c1CCN(Cc1ccccc1)Cc1ccccc1 [Compound 1-37, 1-{4′-[4-(2-Dibenzylamino-ethyl)-3-methyl-isoxazol-5-yl]-biphenyl-4-yl}-cyclopropanecarboxylic acid]
1 to 50 | Cc1noc(-c2ccc(-c3ccc(C4(C(=O)O)CC4)cc3)cc2)c1C(=O)NCCc1ccccc1 [Compound 1-38, 1-[4′-(3-Methyl-4-phenethylcarbamoyl-isoxazol-5-yl)-biphenyl-4-yl]-cyclopropanecarboxylic acid]
1 to 50 | Cc1noc(-c2ccc(-c3ccc(C4(C(=O)O)CC4)cc3)cc2)c1CCC(=O)NC1CC1 [Compound 1-39, 1-{4′-[4-(2-Cyclopropylcarbamoyl-ethyl)-3-methyl-isoxazol-5-yl]-biphenyl-4-yl}-cyclopropanecarboxylic acid]
1 to 50 | Cc1noc(-c2ccc(-c3ccc(C4(C(=O)O)CC4)cc3)cc2)c1CCC(=O)NCC1CC1 [Compound 1-40, 1-(4′-{4-[2-(Cyclopropylmethyl-carbamoyl)-ethyl]-3-methyl-isoxazol-5-yl}-biphenyl-4-yl)-cyclopropanecarboxylic acid]
1 to 50 | Cc1noc(-c2ccc(-c3ccc(C4(C(=O)O)CC4)cc3)cc2)c1CCC(=O)N1CCCC1 [Compound 1-41, 1-{4′-[3-Methyl-4-(3-oxo-3-pyrrolidin-1-yl-propyl)-isoxazol-5-yl]-biphenyl-4-yl}-cyclopropanecarboxylic acid]
1 to 50 | Cc1noc(-c2ccc(-c3ccc(C4(C(=O)O)CC4)cc3)cc2)c1CCC(=O)NCc1ccccc1 [Compound 1-42, 1-{4′-[4-(2-Benzylcarbamoyl-ethyl)-3-methyl-isoxazol-5-yl]-biphenyl-4-yl}-cyclopropanecarboxylic acid]
> 50 | Cc1noc(-c2ccc(-c3ccc(C4(C(=O)O)CC4)cc3)cc2)c1CCC(=O)Nc1ccccc1 [Compound 1-43, 1-{4′-[3-Methyl-4-(2-phenylcarbamoyl-ethyl)-isoxazol-5-yl]-biphenyl-4-yl}-cyclopropanecarboxylic acid]
< 0.3 | Cc1noc(-c2ccc(-c3ccc(C4(C(=O)O)CC4)cc3)cc2)c1CCC(=O)N(C)Cc1ccccc1F [Compound 1-44, 1-[4′-(4-{2-[(2-Fluoro-benzyl)-methyl-carbamoyl]-ethyl}-3-methyl-isoxazol-5-yl)-biphenyl-4-yl]-cyclopropanecarboxylic acid]
1 to 50 | Cc1noc(-c2ccc(-c3ccc(C4(C(=O)O)CC4)cc3)cc2)c1COCc1ccccc1 [Compound 1-45, 1-[4′-(4-Benzyloxymethyl-3-methyl-isoxazol-5-yl)-biphenyl-4-yl]-cyclopropanecarboxylic acid]
1 to 50 | Cc1noc(-c2ccc(-c3ccc(C4(C(=O)O)CC4)cc3)cc2)c1COCc1ccccc1Cl [Compound 1-46, 1-{4′-[4-(2-Chloro-benzyloxymethyl)-3-methyl-isoxazol-5-yl]-biphenyl-4-yl}-cyclopropanecarboxylic acid]
1 to 50 | Cc1noc(-c2ccc(-c3ccc(C4(C(=O)O)CC4)cc3)cc2)c1COC(C)c1ccccc1 (centres unmarked) [Compound 1-47, 1-{4′-[3-Methyl-4-(1-phenyl-ethoxymethyl)-isoxazol-5-yl]-biphenyl-4-yl}-cyclopropanecarboxylic acid]
1 to 50 | Cc1noc(-c2ccc(-c3ccc(C4(C(=O)O)CC4)cc3)cc2)c1CSCc1ccccc1 [Compound 1-50, 1-[4′-(4-Benzylsulfanylmethyl-3-methyl-isoxazol-5-yl)-biphenyl-4-yl]-cyclopropanecarboxylic acid]
> 50 | Cc1noc(-c2ccc(-c3ccc(C4(C(=O)O)CC4)cc3)cc2)c1C[S+]([O-])Cc1ccccc1 (centres unmarked) [Compound 1-52, 1-[4′-(3-Methyl-4-phenylmethanesulfinylmethyl-isoxazol-5-yl)-biphenyl-4-yl]-cyclopropanecarboxylic acid]
1 to 50 | Cc1noc(-c2ccc(-c3ccc(C4(C(=O)O)CC4)cc3)cc2)c1CS(=O)(=O)Cc1ccccc1 [Compound 1-53, 1-[4′-(3-Methyl-4-phenylmethanesulfonylmethyl-isoxazol-5-yl)-biphenyl-4-yl]-cyclopropanecarboxylic acid]
< 0.3 | Cc1noc(-c2ccc(-c3ccc(C4(C(=O)O)CC4)cc3)cc2)c1C[S+]([O-])CCc1ccccc1 (centres unmarked) [Compound 1-54, 1-{4′-[3-Methyl-4-(2-phenyl-ethanesulfinylmethyl)-isoxazol-5-yl]-biphenyl-4-yl}-cyclopropanecarboxylic acid]
< 0.3 | Cc1noc(-c2ccc(-c3ccc(C4(C(=O)O)CC4)cc3)cc2)c1CS(=O)(=O)CCc1ccccc1 [Compound 1-55, 1-{4′-[3-Methyl-4-(2-phenyl-ethanesulfonylmethyl)-isoxazol-5-yl]-biphenyl-4-yl}-cyclopropanecarboxylic acid]
< 0.3 | Cc1noc(-c2ccc(-c3ccc(C4(C(=O)O)CC4)cc3)cc2)c1CNC(=O)OCc1ccccc1 [Compound 1-57, 1-{4′-[4-(Benzyloxycarbonylamino-methyl)-3-methyl-isoxazol-5-yl]-biphenyl-4-yl}-cyclopropanecarboxylic acid]
< 0.3 | Cc1noc(-c2ccc(-c3ccc(C4(C(=O)O)CC4)cc3)cc2)c1CNC(=O)Cc1ccccc1 [Compound 1-58, 1-{4′-[3-Methyl-4-(phenylacetylamino-methyl)-isoxazol-5-yl]-biphenyl-4-yl}-cyclopropanecarboxylic acid]
1 to 50 | Cc1noc(-c2ccc(-c3ccc(C4(C(=O)O)CC4)cc3)cc2)c1CNC(=O)NCc1ccccc1 [Compound 1-59, 1-{4′-[4-(3-Benzyl-ureidomethyl)-3-methyl-isoxazol-5-yl]-biphenyl-4-yl}-cyclopropanecarboxylic acid]
1 to 50 | Cc1noc(-c2ccc(-c3ccc(C4(C(=O)O)CC4)cc3)cc2)c1CNC(=O)CCc1ccccc1 [Compound 1-60, 1-(4′-{3-Methyl-4-[(3-phenyl-propionylamino)-methyl]-isoxazol-5-yl}-biphenyl-4-yl)-cyclopropanecarboxylic acid]
1 to 50 | Cc1noc(-c2ccc(-c3ccc(C4(C(=O)O)CC4)cc3)cc2)c1CNS(=O)(=O)Cc1ccccc1Cl [Compound 1-61, 1-(4′-{4-[(2-Chloro-phenylmethanesulfonylamino)-methyl]-3-methyl-isoxazol-5-yl}-biphenyl-4-yl)-cyclopropanecarboxylic acid]
1 to 50 | Cc1noc(-c2ccc(-c3ccccc3C3(C(=O)O)CC3)cc2)c1/C=C\CCc1ccccc1 [Compound 1-62, 1-{4′-[3-Methyl-4-((Z)-4-phenyl-but-1-enyl)-isoxazol-5-yl]-biphenyl-2-yl}-cyclopropanecarboxylic acid]
1 to 50 | Cc1noc(-c2ccc(-c3ccccc3C3(C(=O)O)CC3)cc2)c1/C=C/CCc1ccccc1 [Compound 1-63, 1-{4′-[3-Methyl-4-((E)-4-phenyl-but-1-enyl)-isoxazol-5-yl]-biphenyl-2-yl}-cyclopropanecarboxylic acid]
< 0.3 | Cc1noc(-c2ccc(-c3ccc(C4(C(=O)O)CC4)cc3)cc2)c1CNC(=O)C1(c2ccccc2)CC1 [Compound 1-64, 1-[4′-(3-Methyl-4-{[(1-phenyl-cyclopropanecarbonyl)-amino]-methyl}-isoxazol-5-yl)-biphenyl-4-yl]-cyclopropanecarboxylic acid]
> 50 | Cc1noc(-c2ccc(-c3ccc(C4(C(=O)O)CC4)cc3)cc2)c1CC(=O)N[C@@H]1CCc2ccccc21 [Compound 1-65, 1-{4′-[4-(Indan-1-ylcarbamoylmethyl)-3-methyl-isoxazol-5-yl]-biphenyl-4-yl}-cyclopropanecarboxylic acid]
> 50 | Cc1noc(-c2ccc(-c3ccc(C4(C(=O)O)CC4)cc3)cc2)c1CC(=O)N1Cc2ccccc2C1 [Compound 1-66, 1-(4′-{4-[2-(1,3-Dihydro-isoindol-2-yl)-2-oxo-ethyl]-3-methyl-isoxazol-5-yl}-biphenyl-4-yl)-cyclopropanecarboxylic acid]
< 0.3 | Cc1noc(-c2ccc(-c3ccc(C4(C(=O)O)CC4)cc3)cc2)c1CN(C)CCc1ccccc1 [Compound 1-67, 1-(4′-{3-Methyl-4-[(methyl-phenethyl-amino)-methyl]-isoxazol-5-yl}-biphenyl-4-yl)-cyclopropanecarboxylic acid]
